Laboratory results: patent US20200246297A1, “LIQUID PHARMACEUTICAL FORMULATIONS OF TETRAIODOTHYRONINE” (priority 2015, published 2020)
Like-named read-outs stand apart in the source and are kept apart here.

How the values were obtained:
[1] = cited from earlier work
[2] = Saturation of T4 solutions in PEG; type: physicochemical; conditions: T4 solvated in PEG
Excerpt: Due to their structure, said nanoaggregates are easily absorbed at gastrointestinal level, and are therefore completely and certainly bioavailable.

[3] = Quantity of T4 microaggregates formed in water: HPLC T4 concentration before and after 0.2 μm microfiltration; type: physicochemical
Description: […] 50 mL of each sample taken is microfiltered through a Millipore GSWP02500 membrane with a porosity of 0.2 μm.
(§1) 50 mL of each sample taken is microfiltered through a Millipore GSWP02500 membrane with a porosity of […].
as §1
50 mL of each sample taken is microfiltered through a Millipore GSWP02500 membrane with a porosity of 0.2 μm.

[4] = cited from earlier work; remark: listed apart in the source
[5] = Protective effect of PEG: residual T4 assay by HPLC after 10 h stirring under nitrogen or oxygen; type: physicochemical; conditions: 600 rpm, 35° C.
Description: 5 mL of each solution is left under stirring for 10 h at 600 rpm and 35° C. in a nitrogen atmosphere, and 5 mL is left under the same conditions but in an oxygen atmosphere.

[6] = Scanning electron microscopy (SEM) of the filter membrane surface; type: physicochemical; conditions: T4 powder in water, comparative example
Description: These findings indicate that despite the 1:100 dilution process undergone by the original 150 μg/mL mixture, the formation of microaggregates remains stable, even after 8 h, and removes a considerable amount of the active ingredient from the pharmacological action.

[7] = Filtration through membranes with cut-off ≤100 KDa: T4 in the permeate; type: physicochemical
[8] = T4 150 μg/mL in 50% w/w aqueous PEG 400, 2000, 4000 or 8000 (all types), diluted 100 times in water pH 1.5, T0
[9] = T4 150 μg/mL in 50% w/w aqueous PEG 400, 2000, 4000 or 8000 (all types), diluted 100 times in water pH 6.5, T0
[10] = T4 150 μg/mL in PEG 200, 300, 400 or 600 (all types), diluted 100 times in water pH 6.5, T0

Question: What does the source list for “(2S)-2-amino-3-[4-(4-hydroxy-3,5-diiodo-oxyphenyloxy)-3,5-diiodophenyl]propanoic acid [T4]”?
Answer: intrinsic dissolution rate (IDR) ([1]; entire physiological pH range): about 0.0002 mg/min/cm^2; Biopharmaceutics Classification System class ([1]; high solubility and intestinal permeability): Class I; concentration of T4 solution in PEG usable without the system becoming saturated [2]: up to 0.1 g/mL; T4 concentration after microfiltration ([3]; T4 150 μg/mL in 30% w/w aqueous PEG 400, 2000, 4000 or 8000 (all types), diluted 100 times in water pH 6.5, T0): 75 % of the value before microfiltration; T4 concentration after microfiltration [3, 8]: 100 % of the theoretical value; T4 concentration before microfiltration [3, 8]: 100 % of the theoretical value; T4 concentration after microfiltration [3, 9]: 100 % of the theoretical value; T4 concentration before microfiltration [3, 9]: 100 % of the theoretical value; T4 concentration after microfiltration [3, 10]: 100 % of the theoretical value; T4 concentration before microfiltration [3, 10]: 100 % of the theoretical value; T4 concentration after microfiltration compared with before ([3]; T4 150 μg/mL in PEG 8000/glycerol or PEG/ethanol 50/50 w/w (both systems), diluted 100 times in water pH 6.5, T0): identical to that before microfiltration; behaviour at later times (microfiltration) ([3]; T4 in 30% w/w aqueous PEG, diluted 100 times in water pH 6.5, T1h, T4h and T8h): behaviour similar to that at T0; T4 concentration in the solution before microfiltration ([3]; T4 powder 150 μg/mL in water pH 6.5, diluted 1:100 in water pH 6.5, T0 (30 sec)): 97.3 % of the theoretical value; T4 concentration after microfiltration ([3]; T4 powder 150 μg/mL in water pH 6.5, diluted 1:100 in water pH 6.5, T0 (30 sec), 0.2 μm filter): 18.5 % of the theoretical value; T4 concentration in the solution before microfiltration ([3]; T4 powder in water pH 6.5, diluted 1:100, T1h): 97.9%; T4 concentration after microfiltration ([3]; T4 powder in water pH 6.5, diluted 1:100, T1h, 0.2 μm filter): 27.1%; T4 concentration in the solution before microfiltration ([3]; T4 powder in water pH 6.5, diluted 1:100, T4h): 98.2%; T4 concentration after microfiltration ([3]; T4 powder in water pH 6.5, diluted 1:100, T4h, 0.2 μm filter): 27.5%; T4 concentration in the solution before microfiltration ([3]; T4 powder in water pH 6.5, diluted 1:100, T8h): 97.5%; T4 concentration after microfiltration ([3]; T4 powder in water pH 6.5, diluted 1:100, T8h, 0.2 μm filter): 23.7%; half-life of the medicament ([4]; euthyroidism): about 7 days; half-life of the medicament ([4]; hypothyroidism and pregnancy): 220 to 240 h; share absorbed in the duodenum ([4]; oral, small intestine): 21%; share absorbed in the ileum ([4]; oral, small intestine): 34%; share absorbed in the jejunum ([4]; oral, small intestine): 45%; time absorption takes ([4]; oral): about three; T4 assay value of the solutions ([5]; T4 150 μg/mL in ethanol, glycerol, PEG 200, 300, 400 or 600 (all cases), nitrogen atmosphere): remains the same as the theoretical value; residual T4 assay value ([5]; T4 150 μg/mL in glycerol or ethanol, oxygen atmosphere): 30 % of the original assay value; average length on the longer axis of elongated crystalline structures on the filter [6]: exceeding 3.03±1.40 μm; T4 in the permeate of ≤100 KDa membrane ([7]; T4 in 50% PEG in water, diluted 100 times in water pH 6.5): quantitative absence of T4 in the permeate; T4 in the permeate of ≤100 KDa membrane ([7]; T4 in 50% w/w aqueous PEG, diluted 100 times in water pH 1.5): quantitative absence of T4 in the permeate; T4 in the permeate of ≤100 KDa membrane ([7]; T4 in PEG 200, 300, 400 or 600, diluted 100 times in water pH 6.5): quantitative absence of T4 in the permeate; T4 in the permeate of ≤100 KDa membrane ([7]; T4 in PEG 8000/glycerol or PEG/ethanol 50/50 w/w, diluted 100 times in water pH 6.5): quantitative absence of T4 in the permeate; T4 in the permeate of ≤100 KDa membrane ([7]; T4 in glycerin, ethanol or glycerin/ethanol 80/20 w/w, diluted 100 times in water pH 6.5): quantitative absence of T4 in the permeate
